Results taken from PMC11990524, “Design and Synthesis of Novel 6-(Substituted phenyl)-[1,3]dioxolo[4′,5′:4,5]benzo[1,2-d]thiazole Compounds as Tyrosinase Inhibitors: In Vitro and In Vivo Insights” (Molecules, 2025).
Where two headings read alike, the source gives them in different places.

How the values were obtained:
[1] = DPPH radical scavenging assay; conditions: 500 μM; 30 min in the dark
Method: DPPH radical scavenging activity was determined by mixing the DPPH solution with compounds 1–13, leaving it in the dark at 20 °C for 30 min, and measuring the optical density at 517 nm. Ascorbic acid (AA) was used as a positive control to compare the scavenging activity. All test samples were used at 500 μM.
An aliquot (20 μL) of test sample (compounds 1–13 and ascorbic acid [positive control]; 5 mM) in DMSO and 180 μL DPPH solution (0.2 mM) in methanol were mixed in each well of a 96-well plate. The mixed solution was kept in the dark at 18 °C for 30 min. A VE microplate reader was used to measure the optical density of each well at 517 nm.

mushroom tyrosinase = mushroom tyrosinase (Agaricus bisporus, UniProt C7FF04); experiment: Mushroom tyrosinase inhibitory activity assay (L-dopa or L-tyrosine as substrate); type: biochemical; conditions: 50 μM, read-out: Inhibition (%, Mean ± SEM) at 50 μM (converted)
Method: In the inhibition experiments, L-dopa and L-tyrosine were used as enzyme substrates.
The plate was incubated at 37 °C for 30 min, and absorbance of dopachrome formation was recorded spectrophotometrically at 475 nm using a VersaMax® Elisa (VE) microplate reader (Molecular Devices, San Jose, CA, USA) to determine tyrosinase inhibition activity. A VE microplate reader was used in all subsequent experiments to measure optical density. All experiments were carried out independently three times.

[2] = ABTS radical scavenging assay; conditions: 100 μM
Method: The ABTS^+ radical solution was obtained by mixing ABTS and potassium persulfate, an oxidizing reagent, and test samples (1–13 and Trolox [positive control]; final concentration: 100 μM) were added to determine their ABTS^+ radical scavenging ability by measuring the optical density at 732 nm.
To prepare ABTS^•+ stock solution, equal amounts of ABTS (14 mM aqueous solution) and K2S2O8 (4.9 mM aqueous solution) were mixed and stored in the dark at 18 °C for 15 h. The prepared ABTS^•+ solution was diluted in ethanol to adjust the absorbance to 0.7 ± 0.01 at 732 nm. The test samples (Trolox [positive control] and compounds 1–13) were dissolved in a cosolvent of ethanol and DMSO (10:1 [v/v]). The adjusted ABTS^•+ solution (90 μL) and test sample (10 μL) were added to each well of a 96-well plate, and the plate was stored in a dark place at 18 °C for 2 min. The optical density was measured at 732 nm every min for 10 min. The test sample solutions were tested at a final concentration of 100 μM. The percentage of radical scavenging activity was calculated as follows: % Radical scavenging activity = 100 × [(Absc − Abst)/Absc], where Abst and Absc are optical densities of the test sample and control, respectively.

Sequence of mushroom tyrosinase (C7FF04 2-392): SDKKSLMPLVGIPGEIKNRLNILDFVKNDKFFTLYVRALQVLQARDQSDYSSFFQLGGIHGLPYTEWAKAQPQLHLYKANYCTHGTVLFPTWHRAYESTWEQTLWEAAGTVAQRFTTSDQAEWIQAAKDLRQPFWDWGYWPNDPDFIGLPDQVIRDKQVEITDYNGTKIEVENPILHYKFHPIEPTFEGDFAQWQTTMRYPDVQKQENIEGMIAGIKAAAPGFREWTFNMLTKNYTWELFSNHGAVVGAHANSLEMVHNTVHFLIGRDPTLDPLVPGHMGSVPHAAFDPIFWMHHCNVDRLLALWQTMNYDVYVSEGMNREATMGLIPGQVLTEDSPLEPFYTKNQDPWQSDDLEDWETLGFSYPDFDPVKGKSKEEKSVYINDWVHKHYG

| Compound | DPPH radical scavenging (inhibition) [1] | inhibition at 50 µM (mushroom tyrosinase; substrate L-dopa) | inhibition at 50 µM (mushroom tyrosinase; substrate L-tyrosine) | ABTS^+ radical scavenging activity (inhibition rate) [2] |
| --- | --- | --- | --- | --- |
| O=C1O[C@H]([C@@H](O)CO)C(O)=C1O [AA, Ascorbic acid, reference compound] | 96% | – | – | – |
| COc1cc(-c2nc3cc4c(cc3s2)OCO4)ccc1O [Compound 1, 4-([1,3]Dioxolo[4′,5′:4,5]benzo[1,2-d]thiazol-6-yl)-2-methoxyphenol] | – | 1.7% | 25.9% | > 77% |
| CCOc1cc(-c2nc3cc4c(cc3s2)OCO4)ccc1O [Compound 2, 4-([1,3]Dioxolo[4′,5′:4,5]benzo[1,2-d]thiazol-6-yl)-2-ethoxyphenol] | – | 50.3% | 14.9% | > 77% |
| COc1ccc(-c2nc3cc4c(cc3s2)OCO4)cc1 [Compound 3, 6-(4-Methoxyphenyl)-[1,3]dioxolo[4′,5′:4,5]benzo[1,2-d]thiazole] | – | 17.2% | 11.1% | – |
| COc1ccc(-c2nc3cc4c(cc3s2)OCO4)cc1O [Compound 4, 5-([1,3]Dioxolo[4′,5′:4,5]benzo[1,2-d]thiazol-6-yl)-2-methoxyphenol] | – | 63% | 25.5% | > 77% |
| Oc1ccc(-c2nc3cc4c(cc3s2)OCO4)cc1Br [Compound 6, 4-([1,3]Dioxolo[4′,5′:4,5]benzo[1,2-d]thiazol-6-yl)-2-bromophenol] | – | 27.9% | 17% | – |
| Oc1c(Br)cc(-c2nc3cc4c(cc3s2)OCO4)cc1Br [Compound 7, 4-([1,3]Dioxolo[4′,5′:4,5]benzo[1,2-d]thiazol-6-yl)-2,6-dibromophenol] | – | 29.7% | 17.7% | – |
| Oc1ccc(-c2nc3cc4c(cc3s2)OCO4)cc1O [Compound 8, 4-([1,3]Dioxolo[4′,5′:4,5]benzo[1,2-d]thiazol-6-yl)benzene-1,2-diol] | 82% | 18.6% | 4.95% | 99% |
| COc1cc(-c2nc3cc4c(cc3s2)OCO4)cc(OC)c1O [Compound 10, 4-([1,3]Dioxolo[4′,5′:4,5]benzo[1,2-d]thiazol-6-yl)-2,6-dimethoxyphenol] | – | 53.2% | 0.54% | 96% |
| COc1ccc(-c2nc3cc4c(cc3s2)OCO4)cc1OC [Compound 11, 6-(3,4-Dimethoxyphenyl)-[1,3]dioxolo[4′,5′:4,5]benzo[1,2-d]thiazole] | – | 19.5% | 0.82% | – |
| COc1ccc(-c2nc3cc4c(cc3s2)OCO4)c(OC)c1 [Compound 12, 6-(2,4-Dimethoxyphenyl)-[1,3]dioxolo[4′,5′:4,5]benzo[1,2-d]thiazole] | – | 32.8% | 10.6% | – |
| COc1cc(-c2nc3cc4c(cc3s2)OCO4)cc(OC)c1OC [Compound 13, 6-(3,4,5-Trimethoxyphenyl)-[1,3]dioxolo[4′,5′:4,5]benzo[1,2-d]thiazole] | – | 5% | 16.6% | – |
| Cc1c(C)c2c(c(C)c1O)CCC(C)(C(=O)O)O2 (stereo not drawn) [Trolox, reference compound] | – | – | – | 99% |
